From patent US8124582B2, “Treatment of diabetes” (FibroGen, Inc., priority 2002, dated 2012)

Key:
[1] = tested on: IGFBP-1; test: In vivo IGFBP-1 gene expression in kidney and liver (microarray); design: species or system Swiss Webster male mice; details: mice, oral gavage; time course; quantitatively different level between tissues; FIG. 3B
Method: (§1) To determine gene induction patterns over time, twenty four Swiss Webster male mice (30-32 g) were obtained from Simonsen, Inc. and treated by oral gavage with a 4 ml/kg volume of either 0.5% carboxymethyl cellulose (CMC; Sigma-Aldrich, St. Louis Mo.) (0 mg/kg/day) or […] compound B (25 mg/ml in 0.5% CMC) (100 mg/kg). At 4, 8, 16, 24, 48, or 72 hours after the final dose, animals were anesthetized with isoflurane. The mice were then sacrificed and tissue samples of kidney, liver, brain, lung, and heart were isolated and stored in RNALATER solution (Ambion) at −80° C.
RNA from tissues obtained from the experiments described above was isolated using the following protocol. A 50 mg section of each organ was diced, 875 μl of RLT buffer (RNEASY kit; Qiagen Inc., Valencia Calif.) was added, and the pieces were homogenized for about 20 seconds using a rotor-stator POLYTRON homogenizer (Kinematica, Inc., Cincinnati Ohio). […] The RNA was eluted into 80 μL of water and quantitated with RIBOGREEN reagent (Molecular Probes, Eugene Oreg.). […] The absorbance at 260 and 280 nm was measured to determine RNA purity and concentration.
Alternatively, tissue samples were diced and homogenized in TRIZOL reagent (Invitrogen Life Technologies, Carlsbad Calif.) using a rotor-stator POLYTRON homogenizer (Kinematica). […] The absorbance at 260 and 280 nm was measured to determine RNA purity and concentration. […]

[2] = tested on: inducible nitric oxide synthase (iNOS); test: In vivo iNOS mRNA expression (quantitative PCR); design: species or system Swiss Webster male mice; details: mice, FIG. 10A
Method: as §1
To investigate the dose response of compounds of the present invention, twelve Swiss Webster male mice (30-32 g) (obtained from Simonsen, Inc., Gilroy Calif.) were treated by oral gavage once per day for 4 days with a 4 ml/kg volume of either 0.5% carboxymethyl cellulose (CMC; Sigma-Aldrich, St. Louis Mo.), compound D (25 mg/ml in 0.5% CMC) (100 mg/kg/day), or compound B (7.5 and 25 mg/ml in 0.5% CMC) (30 and 100 mg/kg/day, respectively). Four hours after the final dose, animals were anesthetized, sacrificed, and approximately 150 mg of liver and each kidney were isolated and stored in RNALATER solution (Ambion) at −20° C.
Hypertension is a risk factor for diabetes and disorders and diseases associated with diabetes. The effects of compounds of the present invention on regulation of blood pressure were examined as follows. Animals were treated with compound B or compound D and RNA samples were prepared as described above in Example 4. […] Analysis of the relative level of gene expression was performed by quantitative PCR using a FASTSTART DNA MASTER SYBR GREEN I kit (Roche) and gene-specific primers, using a LIGHTCYCLER system (Roche), according to manufacturer's instructions. […]
The relative level of 18S ribosomal RNA gene expression was measured as a control. Quantitative PCR was performed using a QUANTITECT SYBR GREEN PCR kit (Qiagen) and gene-specific primers, using a LIGHTCYCLER system (Roche), according to manufacturer's instructions. […]

Question: With O=C(O)CNC(=O)c1nc(Cl)c2ccccc2c1O [compound B, [(1-Chloro4-hydroxy-isoquinoline-3-carbonyl)-amino]-acetic acid] as the compound, how does the “IGFBP-1 expression in kidney and liver” value [1] read?
Answer: almost identical temporal induction

Question: And the “dose dependence of iNOS induction” value ([2]; 30 and 100 mg/kg/day oral gavage)?
Answer: dose-dependent

Question: And the “expression of the gene encoding iNOS” value ([2]; oral gavage, within 8 hours following treatment, then returned to control levels, normalized to 18S rRNA)?
Answer: increased
